Here are results for 34 compounds from patent US11400094B2, “2H-pyrazolo[4,3-d]pyrimidine compounds as toll-like receptor 7 (TLR7) agonists and methods and uses therefor” (BRISTOL-MYERS SQUIBB COMPANY, priority 2018, dated 2022).

For the experiment, the target named is T1, human TLR7 (Homo sapiens, UniProt Q9NYK1).
T1 construct: host or cells: HEK-Blue TLR7 cells (engineered human embryonic kidney cells)
T1 sequence (Q9NYK1 27-1049): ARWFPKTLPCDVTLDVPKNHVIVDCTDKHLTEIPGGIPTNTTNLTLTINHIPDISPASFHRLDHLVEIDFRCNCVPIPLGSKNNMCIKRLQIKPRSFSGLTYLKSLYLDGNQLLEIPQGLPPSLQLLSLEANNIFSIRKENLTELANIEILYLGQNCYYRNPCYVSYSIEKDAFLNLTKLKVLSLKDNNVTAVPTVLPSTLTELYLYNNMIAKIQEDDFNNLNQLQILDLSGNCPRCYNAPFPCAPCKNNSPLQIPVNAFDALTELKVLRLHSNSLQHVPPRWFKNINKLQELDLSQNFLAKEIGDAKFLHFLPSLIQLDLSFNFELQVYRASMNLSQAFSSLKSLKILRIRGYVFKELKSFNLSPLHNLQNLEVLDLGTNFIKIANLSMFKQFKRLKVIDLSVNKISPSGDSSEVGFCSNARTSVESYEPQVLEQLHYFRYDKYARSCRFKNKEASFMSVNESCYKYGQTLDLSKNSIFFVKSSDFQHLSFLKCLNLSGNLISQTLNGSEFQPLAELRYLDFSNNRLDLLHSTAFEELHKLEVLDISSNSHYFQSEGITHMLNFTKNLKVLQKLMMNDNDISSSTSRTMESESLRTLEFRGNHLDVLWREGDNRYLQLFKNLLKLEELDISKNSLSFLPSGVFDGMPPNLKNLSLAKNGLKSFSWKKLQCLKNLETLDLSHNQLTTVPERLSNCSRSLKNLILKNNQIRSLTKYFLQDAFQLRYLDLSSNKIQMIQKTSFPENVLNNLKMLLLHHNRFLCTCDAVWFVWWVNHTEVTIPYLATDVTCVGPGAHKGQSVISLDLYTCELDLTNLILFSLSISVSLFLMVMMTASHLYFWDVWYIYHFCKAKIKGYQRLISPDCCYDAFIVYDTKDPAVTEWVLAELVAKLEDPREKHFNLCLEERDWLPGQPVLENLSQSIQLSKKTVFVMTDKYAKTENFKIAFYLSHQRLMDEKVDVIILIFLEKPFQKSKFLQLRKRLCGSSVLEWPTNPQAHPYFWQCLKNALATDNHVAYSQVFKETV
The experiment can be described thus: HEK-Blue TLR7 reporter assay (human TLR7 agonist activity, SEAP reporter). The class given is cell-based. The following applies: HEK-Blue TLR7 cells, 18 h treatment, SEAP read-out.

Procedure: This procedure describes a method for assaying human TLR7 (hTLR7) agonist activity of the compounds disclosed in this specification.
HEK-Blue™ TLR7 cells were added to each well of a 384-well tissue-culture plate (15,000 cells per well) and incubated 16-18 h at 37° C., 5% CO2. […] After 18 h treatment ten microliters of freshly-prepared Quanti-Blue™ reagent (Invivogen) was added to each well, incubated for 30 min (37° C., 5% CO2) and SEAP levels measured using an Envision plate reader (OD=620 nm).

Take `CCCCNc1nc(N)nc2cn(Cc3ccc(CNC4CCC4)cc3OC)nc12` [IIa-01]: where the note is “Table A, formula IIa compounds”, the EC50 turned out to be 340 nM. On the same count and under the same terms, the figure for `CCCCNc1nc(N)nc2cn(Cc3ccc(CN4CCNCC4)cc3OC)nc12` [IIa-02] is 510 nM; for `CCCCNc1nc(N)nc2cn(Cc3ccc(CNCCO)cc3OC)nc12` [IIa-03] it is 1000 nM. Same read-out and setting: the figure for `CCCCNc1nc(N)nc2cn(Cc3ccc(CNCCCN)cc3OC)nc12` [IIa-04] is 1600 nM; for `CCCCNc1nc(N)nc2cn(Cc3ccc(CNCc4ccncc4)cc3OC)nc12` [IIa-05] it is 450 nM. Same read-out and setting: the figure for `CCCCNc1nc(N)nc2cn(Cc3ccc(CNCC4COC4)cc3OC)nc12` [IIa-07] is 610 nM. For the compound `CCCCNc1nc(N)nc2cn(Cc3ccc(CNC4CCC(O)CC4)cc3OC)nc12` (stereo not shown) [IIa-08], the EC50 (Table A, formula IIa compounds) amounted to 650 nM. Turning to `CCCCNc1nc(N)nc2cn(Cc3ccc(CNC4CC(O)C4)cc3OC)nc12` (stereo not shown) [IIa-09], the EC50 (Table A, formula IIa compounds) was 420 nM. Same read-out and setting: the result for `CCCCNc1nc(N)nc2cn(Cc3ccc(CNCc4ccc(N)cc4)cc3OC)nc12` [IIa-10] reads 270 nM; that for `CCCCNc1nc(N)nc2cn(Cc3ccc(CNCCS(C)(=O)=O)cc3OC)nc12` [IIa-11], 540 nM.

For `CCCCNc1nc(N)nc2cn(Cc3ccc(CO)cc3OC)nc12` [IIa-14], under “Table A, formula IIa compounds”, the EC50 was determined as 550 nM. On the same count and under the same terms, the figure for `CCCCNc1nc(N)nc2cn(Cc3ccc(CNC4COC4)cc3OC)nc12` [IIa-15] is 300 nM. The same measure, in the same setting: the figure for `CCCCNc1nc(N)nc2cn(Cc3ccc(CN4CCN(CCO)CC4)cc3OC)nc12` [IIa-17] is 180 nM; for `CCCCNc1nc(N)nc2cn(Cc3ccc(CNC4CCOCC4)cc3OC)nc12` [IIa-19] it is 320 nM. On the same count and under the same terms, the result for `CCCCNc1nc(N)nc2cn(Cc3ccc(CNCC(C)(C)O)cc3OC)nc12` [IIa-20] reads 280 nM; that for `CCCCNc1nc(N)nc2cn(Cc3ccc(Cn4ccnc4)cc3OC)nc12` [IIa-21], 190 nM; that for `CCCCNc1nc(N)nc2cn(Cc3ccc(CNCCOC)cc3OC)nc12` [IIa-22], 200 nM. With `CCCCNc1nc(N)nc2cn(Cc3ccc(CN4CC(CCO)C4)cc3OC)nc12` [IIa-23], the EC50 (Table A, formula IIa compounds) came to 303 nM. Still for that read-out and setting: the result for `CCCCNc1nc(N)nc2cn(Cc3ccc(CNCC4CC(O)C4)cc3OC)nc12` (stereo not shown) [IIa-24] reads 130 nM; that for `CCCCNc1nc(N)nc2cn(Cc3ccc(CNc4ccc(CCO)cc4)cc3OC)nc12` [IIa-25], 880 nM; that for `CCCCNc1nc(N)nc2cn(Cc3ccc(CN(C)CCCO)cc3OC)nc12` [IIa-26], 194 nM. On to `CCCCNc1nc(N)nc2cn(Cc3ccc(CN4CC5CC4CN5)cc3OC)nc12` (stereo not shown) [IIa-27], for which, under “Table A, formula IIa compounds”, the EC50 was found to be 710 nM. As to `CCCCNc1nc(N)nc2cn(Cc3ccc(CNC4(CO)CCCC4)cc3OC)nc12` [IIa-28], the EC50 (Table A, formula IIa compounds) was determined as 430 nM.

On to `CCCCNc1nc(N)nc2cn(Cc3ccc(CN4CCCNCC4)cc3OC)nc12` [IIa-29], for which the EC50 (Table A, formula IIa compounds) is 760 nM. Consider `CCCCNc1nc(N)nc2cn(Cc3ccc(CN4CCOCC4)cc3OC)nc12` [IIa-30], for which the EC50 (Table A, formula IIa compounds) turned out to be 580 nM. On the same count and under the same terms, the result for `CCCCNc1nc(N)nc2cn(Cc3ccc(CN4CCCCC4)cc3OC)nc12` [IIa-31] reads 410 nM; that for `CCCCNc1nc(N)nc2cn(Cc3ccc(CN4CCCC4)cc3OC)nc12` [IIa-32], 600 nM; that for `CCCCNCc1ccc(Cn2cc3nc(N)nc(NCCCC)c3n2)c(OC)c1` [IIa-33], 810 nM. On the same count and under the same terms, the figure for `CCCCNc1nc(N)nc2cn(Cc3ccc(CNC(C)(C)C)cc3OC)nc12` [IIa-34] is 550 nM; for `CCC[C@@H](CCO)Nc1nc(N)nc2cn(Cc3ccc(CO)cc3OC)nc12` [IIa-35] it is 2100 nM. Consider `CCCCNc1nc(N)nc2cn(Cc3ccc(CN4CCN(C)CC4)cc3OC)nc12` [IIa-36], for which the concentration for a half-maximal effect (EC50) (Table A, formula IIa compounds) stood at 520 nM.

For `CCCCNc1nc(N)nc2cn(Cc3ccc(Oc4ccc(CO)cc4)nc3)nc12` [IIb-01], the EC50 (Table B, formula IIb compounds) is 820 nM. Take `CCCCNc1nc(N)nc2cn(Cc3ccc(Oc4ccc(CNCCO)cc4)cc3OC)nc12` [IIb-02]: the EC50 (Table B, formula IIb compounds) was 1600 nM. Consider `CCCCNc1nc(N)nc2cn(Cc3ccc(Oc4ccc(CNCCO)cc4)nc3)nc12` [IIb-04], for which the EC50 (Table B, formula IIb compounds) stood at 2100 nM.
